Like-named read-outs stand apart in the source and are kept apart here.
Assays:
Type in all cases: in vivo
[1] = tested on: Spodoptera littoralis (Egyptian cotton leaf worm); assay: Spodoptera littoralis cotton leaf disc spray test, L1 larvae; settings: foliar, 72 h
From the text: (§1) The pesticidal/insecticidal properties of the compounds according to embodiments 1 or 2 can be illustrated via the following tests: Spodoptera littoralis (Egyptian cotton leaf worm) • Cotton leaf discs were placed onto agar in 24-well microtiter plates and sprayed with aqueous test solutions prepared from 10'000 ppm DMSO stock solutions. After drying the leaf discs were infested with five L1 larvae. […] Plutella xylostella (Diamond back moth): 24-well microtiter plates with artificial diet were treated with aqueous test solutions prepared from 10'000 ppm DMSO stock solutions by pipetting. After drying, the plates were infested with L2 larvae (10 to 15 per well). The samples were assessed for mortality and growth inhibition in comparison to untreated samples 5 days after infestation. […] Diabrotica balteata, (Corn root worm) • Maize sprouts placed onto an agar layer in 24-well microtiter plates were treated with aqueous test solutions prepared from 10'000 ppm DMSO stock solutions by spraying. After drying, the plates were infested with L2 larvae (6 to 10 per well). […] Thrips tabaci (Onion thrips): Sunflower leaf discs were placed on agar in 24-well microtiter plates and sprayed with aqueous test solutions prepared from 10'000 ppm DMSO stock solutions. After drying the leaf discs were infested with a thrips population of mixed ages. The samples were assessed for mortality 6 days after infestation. […] Tetranychus urticae (Two-spotted spider mite): Bean leaf discs on agar in 24-well microtiter plates were sprayed with aqueous test solutions prepared from 10'000 ppm DMSO stock solutions. After drying the leaf discs were infested with a mite population of mixed ages. The samples were assessed for mortality on mixed population (mobile stages) 8 days after infestation. […] Euschistus heros (Neotropical Brown Stink Bug): • Two weeks old soybean plants were sprayed in a turn table spray chamber with the diluted spray solutions. After drying 2 soybean seeds were added and plants were infested with 10 N2 nymphs of the neotropical brown stink bug Euschistus heros in plastic test boxes. The samples were assessed for mortality in comparison to untreated samples 5 days after infestation. • The following compounds gave at least 80% mortality of Euschistus heros at an application rate of 12.5 ppm: Compounds 3 , 4 , 8 , 39 , 43 , 44 , 46 , 75 , 76 , 77 , 78 , 79 , 80 , 81 , 82 , 88 , 90 , 93 and 95 . Myzus persicae (Green peach aphid): Sunflower leaf discs were placed on agar in a 24-well microtiter plate and sprayed with test solutions at an application rate of 200 ppm. After drying, the leaf discs were infested with an aphid population of mixed ages. After an incubation period of 6 DAT, samples were checked for mortality. The following compounds gave at least 50% mortality of Myzus persicae: Compounds 3 , 4 , 8 , 43 , 44 , 75 , 76 , 77 , 80 , 81 , 90 and 92 . Myzus persicae (Green peach aphid): • Test compounds were applied by pipette into 24 well plates and mixed with Sucrose solution. Application rate: 12.5ppm. The plates were closed with a stretched parafilm. A plastic stencil with 24 holes is placed onto the plate and infested pea seedlings were placed directly on the Parafilm. The infested plate is closed with a gel blotting paper and another plastic stencil and then turned upside down. […]

[2] = tested on: Diabrotica balteata, (Corn root worm); assay: Diabrotica balteata maize sprout spray test, L2 larvae; settings: 96 h
From the text: as §1

[3] = tested on: Myzus persicae (Green peach aphid); assay: Myzus persicae sucrose solution / Parafilm feeding test; settings: 120 h, read-out: mortality of Myzus persicae
From the text: as §1

[4] = tested on: Thrips tabaci (Onion thrips); assay: Thrips tabaci sunflower leaf disc spray test; settings: foliar, 144 h, application rate of 200 ppm, mortality 6 days after infestation, mixed ages
From the text: as §1

[5] = tested on: Plutella xylostella (Diamond back moth); assay: Plutella xylostella artificial diet test, L2 larvae; settings: 120 h, application rate of 200 ppm, mortality and growth inhibition 5 days after infestation
From the text: as §1

[6] = tested on: Tetranychus urticae (Two-spotted spider mite); assay: Tetranychus urticae bean leaf disc spray test; settings: foliar, 192 h, application rate of 200 ppm, mortality on mixed population (mobile stages) 8 days after infestation
From the text: as §1

[7] = tested on: Euschistus heros (Neotropical Brown Stink Bug); assay: Euschistus heros soybean plant spray test, N2 nymphs; settings: 120 h, application rate of 12.5 ppm, 5 days after infestation, N2 nymphs, read-out: mortality of Euschistus heros
From the text: as §1

[8] = application rate of 200 ppm, 3 days after infestation, L1 larvae, read-out: mortality
[9] = application rate of 200 ppm, 4 days after infestation, L2 larvae, read-out: mortality
[10] = Application rate: 12.5ppm, sucrose solution, 5 days after infestation

Cn1nc(C(F)(F)C(F)(F)F)c(C(F)(F)F)c1-c1noc(-c2ccc(Cl)c(C(=O)NC3(C#N)CC3)c2)n1 [Compound 10, 2-Chloro-N-(1-cyanocyclopropyl)-5-[3-[2-methyl-5-(1,1,2,2,2-pentafluoroethyl)-4-(trifluoromethyl)pyrazol-3-yl]-1,2,4-oxadiazol-5-yl]benzamide]
≥ 80%: mortality at 200 ppm [1] | mortality at 200 ppm [2] | mortality at 12.5 ppm [3] | pest or weed control at 200 ppm [4] | pest or weed control at 200 ppm [5]

Cn1cc(-c2c(C(F)(F)F)c(C(F)(F)C(F)(F)F)nn2C)nc1-c1ccc(Cl)c(C(=O)NC2CC2)c1 [Compound 29, 2-chloro-N-cyclopropyl-5-[1-methyl-4-[2-methyl-5-(1,1,2,2,2-pentafluoroethyl)-4-(trifluoromethyl)pyrazol-3-yl]imidazol-2-yl]benzamide]
≥ 80%: mortality at 200 ppm [1, 8] | mortality at 200 ppm [2, 9] | mortality at 12.5 ppm [3, 10] | pest or weed control at 200 ppm [5] | pest or weed control at 200 ppm [6]

Cn1nc(C(F)(F)C(F)(F)F)c(C(F)(F)F)c1-c1cnn(-c2ccc(Cl)c(C(=O)NC3(C#N)CC3)c2)c1 [Compound 38, 2-chloro-N-(1-cyanocyclopropyl)-5-[4-[2-methyl-5-(1,1,2,2,2-pentafluoroethyl)-4-(trifluoromethyl)pyrazol-3-yl]pyrazol-1 - yl]benzamide]
≥ 80%: mortality at 12.5 ppm [3, 10]

Cn1nc(C(F)(F)C(F)(F)F)c(C(F)(F)F)c1-c1cc(-c2ccc(Cl)c(C(=O)NC3(C#N)CC3)c2)ns1 [Compound 46, 2-chloro-N-(1-cyanocyclopropyl)-5-[5-[2-methyl-5-(1,1,2,2,2-pentafluoroethyl)-4-(trifluoromethyl)pyrazol-3-yl]isothiazol-3-yl]benzamide]
≥ 80%: mortality at 200 ppm [1, 8] | mortality at 12.5 ppm [7]

Cn1nc(C(F)(F)C(F)(F)F)c(C(F)(F)F)c1-c1cc(-c2ccc(Cl)c(C(=O)NC3(C#N)CC3)c2)[nH]n1 [Compound 72, 2-chloro-N-(1-cyanocyclopropyl)-5-[3-[2-methyl-5-(1,1,2,2,2-pentafluoroethyl)-4-(trifluoromethyl)pyrazol-3-yl]-1H-pyrazol-5-yl]benzamide]
≥ 80%: mortality at 200 ppm [1, 8] | mortality at 200 ppm [2, 9] | mortality at 12.5 ppm [3, 10] | pest or weed control at 200 ppm [5]

Cn1nc(C(F)(F)C(F)(F)F)c(C(F)(F)F)c1-c1cc(-c2ccc(Cl)c(C(=O)NC3CCOC3=O)c2)on1 (stereo not shown) [Compound 78, 2-chloro-5-[3-[2-methyl-5-(1,1,2,2,2-pentafluoroethyl)-4-(trifluoromethyl)pyrazol-3-yl]isoxazol-5-yl]-N-(2-oxotetrahydrofuran-3-yl)benzamide]
≥ 80%: mortality at 200 ppm [1, 8] | mortality at 200 ppm [2, 9] | pest or weed control at 200 ppm [4] | mortality at 12.5 ppm [7] | pest or weed control at 200 ppm [6]

C#CCNC(=O)c1cc(-c2cc(-c3c(C(F)(F)F)c(C(F)(F)C(F)(F)F)nn3C)no2)ccc1Cl [Compound 79, 2-chloro-5-[3-[2-methyl-5-(1,1,2,2,2-pentafluoroethyl)-4-(trifluoromethyl)pyrazol-3-yl]isoxazol-5-yl]-N-prop-2-ynyl-benzamide]
≥ 80%: mortality at 200 ppm [1, 8] | mortality at 200 ppm [2, 9] | pest or weed control at 200 ppm [4] | mortality at 12.5 ppm [7] | pest or weed control at 200 ppm [5] | pest or weed control at 200 ppm [6]

C=C(Cl)CNC(=O)c1cc(-c2cc(-c3c(C(F)(F)F)c(C(F)(F)C(F)(F)F)nn3C)no2)ccc1Cl [Compound 82, 2-chloro-N-(2-chloroallyl)-5-[3-[2-methyl-5-(1,1,2,2,2-pentafluoroethyl)-4-(trifluoromethyl)pyrazol-3-yl]isoxazol-5-yl]benzamide]
≥ 80%: mortality at 200 ppm [1, 8] | mortality at 200 ppm [2, 9] | pest or weed control at 200 ppm [4] | mortality at 12.5 ppm [7] | pest or weed control at 200 ppm [5]

Cn1nc(C(F)(F)C(F)(F)F)c(C(F)(F)F)c1-c1cc(-c2ccc(Cl)c(C(=O)NC3(C(F)(F)F)CC3)c2)on1 [Compound 88, 2-chloro-5-[3-[2-methyl-5-(1,1,2,2,2-pentafluoroethyl)-4-(trifluoromethyl)pyrazol-3-yl]isoxazol-5-yl]-N-[1-(trifluoromethyl)cyclopropyl]benzamide]
≥ 80%: mortality at 200 ppm [1, 8] | mortality at 200 ppm [2, 9] | pest or weed control at 200 ppm [4] | mortality at 12.5 ppm [7] | pest or weed control at 200 ppm [5]

Cn1nc(C(F)(F)C(F)(F)F)c(C(F)(F)F)c1-c1cc(-c2ccc(Cl)c(C(=O)Nc3ccncc3)c2)on1 [Compound 89, 2-chloro-5-[3-[2-methyl-5-(1,1,2,2,2-pentafluoroethyl)-4-(trifluoromethyl)pyrazol-3-yl]isoxazol-5-yl]-N-(4-pyridyl)benzamide]
≥ 80%: mortality at 200 ppm [1, 8] | mortality at 200 ppm [2, 9] | pest or weed control at 200 ppm [4] | pest or weed control at 200 ppm [5] | pest or weed control at 200 ppm [6]

Cn1nc(C(F)(F)C(F)(F)F)c(C(F)(F)F)c1-c1cc(-c2ccc(Cl)c(C(N)=O)c2)on1 [Compound 94, 2-chloro-5-[3-[2-methyl-5-(1,1,2,2,2-pentafluoroethyl)-4-(trifluoromethyl)pyrazol-3-yl]isoxazol-5-yl]benzamide]
≥ 80%: mortality at 200 ppm [1, 8] | mortality at 200 ppm [2, 9] | pest or weed control at 200 ppm [4] | pest or weed control at 200 ppm [5] | pest or weed control at 200 ppm [6]

Cn1nc(C(F)(F)C(F)(F)F)c(C(F)(F)F)c1-c1cc(-c2ccc(Cl)c(C(=O)NC3(c4ccccn4)CC3)c2)on1 [Compound 95, 2-chloro-5-[3-[2-methyl-5-(1,1,2,2,2-pentafluoroethyl)-4-(trifluoromethyl)pyrazol-3-yl]isoxazol-5-yl]-N-[1-(2-pyridyl)cyclopropyl]benzamide]
≥ 80%: mortality at 200 ppm [1, 8] | mortality at 200 ppm [2, 9] | pest or weed control at 200 ppm [4] | mortality at 12.5 ppm [7] | pest or weed control at 200 ppm [5]

Cn1nc(C(F)(F)C(F)(F)F)c(C(F)(F)F)c1-c1cc(-c2ccc(Cl)c(C(=O)NCC(F)(F)F)c2)on1 [Compound 96, 2-chloro-5-[3-[2-methyl-5-(1,1,2,2,2-pentafluoroethyl)-4-(trifluoromethyl)pyrazol-3-yl]isoxazol-5-yl]-N-(2,2,2-trifluoroethyl)benzamide]
≥ 80%: mortality at 200 ppm [1, 8] | mortality at 200 ppm [2, 9] | mortality at 12.5 ppm [3, 10] | pest or weed control at 200 ppm [4] | pest or weed control at 200 ppm [5]

Cn1nc(C(F)(F)C(F)(F)F)c(C(F)(F)F)c1-c1cc(-c2ccc(Cl)c(C(=O)NCC(F)F)c2)on1 [Compound 97, 2-chloro-N-(2,2-difluoroethyl)-5-[3-[2-methyl-5-(1,1,2,2,2-pentafluoroethyl)-4-(trifluoromethyl)pyrazol-3-yl]isoxazol-5-yl]benzamide]
≥ 80%: mortality at 200 ppm [1, 8] | mortality at 200 ppm [2, 9] | mortality at 12.5 ppm [3, 10] | pest or weed control at 200 ppm [5]

C=C(C)CNC(=O)c1cc(-c2cc(-c3c(C(F)(F)F)c(C(F)(F)C(F)(F)F)nn3C)no2)ccc1Cl [Compound 98, 2-chloro-N-(2-methylallyl)-5-[3-[2-methyl-5-(1,1,2,2,2-pentafluoroethyl)-4-(trifluoromethyl)pyrazol-3-yl]isoxazol-5-yl]benzamide]
≥ 80%: mortality at 200 ppm [1, 8] | mortality at 200 ppm [2, 9] | pest or weed control at 200 ppm [4] | pest or weed control at 200 ppm [5] | pest or weed control at 200 ppm [6]
